Test systems include SF-539; NCI-H23; Malme-3M; A549; K562; HCT-15; RPMI-8226; SNB-75; SK-MEL-5; EKVX; A498; SK-OV-3; UO-31; OVCAR-5; UACC-257.
Holding throughout (test): NCI anticancer screen, dose series, 48 h

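Interpolation was linear, between the two tested concentrations surrounding the appropriate level; five concentrations were tested over 48 hours in 96-well plates. The concentration for 50% growth inhibition is given as GI50.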 Activity calls are given as the source filed them. No stated cut-off is given here; in the data, active = GI50 up to about 1.1 µM and inactive = higher.

For the molecule `O=S(=O)(c1ccccc1)n1cc(C[P+](c2ccccc2)(c2ccccc2)c2ccccc2)c2ccccc21`, the GI50 with SF-539 was 4.59 µM (inactive); in the experiment with NCI-H23, 2.99 µM (inactive); with Malme-3M, 4.38 µM (inactive); in the experiment on A549, 10.9 µM (inactive); in the experiment on K562, 2.65 µM (inactive); with HCT-15, 16.6 µM. The GI50 in the experiment with RPMI-8226 is 0.6 µM (active); in the experiment on SNB-75, 3.25 µM (inactive); in the experiment with SK-MEL-5 it was 1.67 µM (inactive); in the experiment on EKVX it was 3.33 µM (inactive); in the experiment on A498, 15.6 µM (inactive); in the experiment with SK-OV-3, 2.5 µM (inactive). In addition, the GI50 was 3.38 µM (inactive) in the experiment on UO-31 and 17.2 µM (inactive) in the experiment with OVCAR-5.
As for `O=C(CN1CCOCC1)Nc1nc(-c2ccc(Cl)cc2)cs1`, the GI50 in the experiment with SF-539 was 44.4 µM (inactive); in the experiment with NCI-H23 it was 15.1 µM (inactive); in the experiment on Malme-3M, 23.1 µM (inactive); in the experiment on A549, 24.4 µM (inactive); in the experiment on K562 it was 19.4 µM (inactive); in the experiment on HCT-15 it was 29.4 µM. The GI50 with RPMI-8226 was 13.6 µM (inactive); in the experiment on SNB-75, 19 µM (inactive); with EKVX it was 75.2 µM (inactive); in the experiment on A498 it was 23.1 µM (inactive); with SK-OV-3, 65.3 µM (inactive); with UO-31, 20.3 µM (inactive). In addition, the GI50 with OVCAR-5 was 89.7 µM (inactive).
With `CCN(CC)c1oc(N(CC)CC)c(C(=O)Nc2ccccn2)c(=O)c1C(C)=O`, the GI50 in the experiment on SF-539 was > 100 µM (inactive); in the experiment with NCI-H23 it was > 100 µM (inactive); with Malme-3M it was > 100 µM (inactive); in the experiment with A549, > 100 µM (inactive); in the experiment with K562, > 100 µM (inactive); in the experiment on HCT-15, greater than 100 µM. Further, the GI50 with RPMI-8226, with SNB-75, in the experiment with SK-MEL-5, in the experiment with EKVX, with A498 and in the experiment with SK-OV-3 was > 100 µM (inactive) throughout. Further, the GI50 in the experiment on UO-31 and in the experiment with OVCAR-5 was > 100 µM (inactive) in each case.
Turning to `NC(=S)N1N=C2c3ccccc3CC[C@H]2[C@@H]1c1cccs1`, the GI50 was 43.2 µM (inactive) with SF-539; 24.6 µM (inactive) with NCI-H23; 19.2 µM (inactive) in the experiment on Malme-3M; 30.1 µM (inactive) in the experiment with A549; 7.69 µM (inactive) with K562; 21.3 µM in the experiment with HCT-15. Also, the GI50 is 37.9 µM (inactive) in the experiment on RPMI-8226; 28 µM (inactive) in the experiment with UACC-257; 38.4 µM (inactive) with EKVX; 60.3 µM (inactive) in the experiment on A498; 37.7 µM (inactive) with SK-OV-3; 27.5 µM (inactive) in the experiment on UO-31. Further, the GI50 in the experiment with OVCAR-5 is > 100 µM (inactive).
For `COc1cc(OC)c(/C=C2\N=C(C)N(Nc3nnc(NN4C(=O)/C(=C/c5c(OC)cc(OC)cc5OC)N=C4C)c4ccccc34)C2=O)c(OC)c1`, the GI50 with SF-539 is > 100 µM (inactive); in the experiment on NCI-H23 it was > 100 µM (inactive); in the experiment with A549 it was > 100 µM (inactive); in the experiment with K562 it was > 100 µM (inactive); with HCT-15, greater than 100 µM; with RPMI-8226, > 100 µM (inactive). Moreover, the GI50 in the experiment with UACC-257 is > 100 µM (inactive); with SNB-75 it was 42.3 µM (inactive); with SK-MEL-5, > 100 µM (inactive); in the experiment on EKVX, 94.4 µM (inactive); in the experiment with A498 it was > 100 µM (inactive); in the experiment with OVCAR-5, > 100 µM (inactive).
Turning to `CCCc1nc(N)nc(C(=O)Nc2cccc(C(F)(F)F)c2)c1CC`, the GI50 with SF-539 is > 100 µM (inactive); in the experiment with NCI-H23 it was > 100 µM (inactive); in the experiment on Malme-3M it was > 100 µM (inactive); in the experiment on A549, > 100 µM (inactive); with K562, > 100 µM (inactive); in the experiment with HCT-15 it was greater than 100 µM. Moreover, the GI50 in the experiment with RPMI-8226 is 76.6 µM (inactive); in the experiment on UACC-257, > 100 µM (inactive); in the experiment with SNB-75, > 100 µM (inactive); with SK-MEL-5, > 100 µM (inactive); with EKVX it was > 100 µM (inactive); with A498, > 100 µM (inactive). For the same molecule, the GI50 with UO-31 and with OVCAR-5 was > 100 µM (inactive) each time.

For the origin of these results see ChEMBL document CHEMBL1201862, “PubChem BioAssay data set” (2004).
